This is an account of results in paper PMC7177897, “Benzylaminoethyureido-Tailed Benzenesulfonamides: Design, Synthesis, Kinetic and X-ray Investigations on Human Carbonic Anhydrases” (International Journal of Molecular Sciences, 2020).

In test [1] the target is T1, hCA II (Homo sapiens, UniProt P00918).
T1 construct: gene CA2; recombinant, made by the authors as in earlier publications; cytosolic isoform
Kind of test: stopped-flow CO2 hydration assay. The test is classed as biochemical. From the text:
stopped-flow CO2 hydration assay on hCA II

The target in test [2] is T2, hCA XII (Homo sapiens, UniProt O43570).
T2 construct: gene CA12; recombinant, made by the authors as in earlier publications
T2 sequence (O43570 25-354 limits assumed): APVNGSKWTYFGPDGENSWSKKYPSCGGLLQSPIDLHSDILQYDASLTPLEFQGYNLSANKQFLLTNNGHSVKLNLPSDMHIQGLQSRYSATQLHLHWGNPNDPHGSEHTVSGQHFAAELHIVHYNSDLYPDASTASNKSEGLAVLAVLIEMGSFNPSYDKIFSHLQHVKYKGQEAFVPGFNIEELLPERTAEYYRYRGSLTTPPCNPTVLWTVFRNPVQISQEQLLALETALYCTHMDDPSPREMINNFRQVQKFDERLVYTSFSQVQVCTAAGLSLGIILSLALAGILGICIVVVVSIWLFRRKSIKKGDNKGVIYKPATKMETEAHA
Kind of test: stopped-flow CO2 hydration assay. It is filed as biochemical. From the text:
stopped-flow CO2 hydration assay on hCA XII

Test [3] addresses T3, hCA IX (Homo sapiens, UniProt Q16790).
T3 construct: gene CA9; recombinant, made by the authors as in earlier publications
Kind of test: stopped-flow CO2 hydration assay. It is filed as biochemical. From the text: stopped-flow CO2 hydration assay on hCA IX

Test [4] addresses T4, hCA I (Homo sapiens, UniProt P00915).
T4 construct: gene CA1; crystals from hCA I purchased from Sigma-Aldrich, residues 4-260 visible, two monomers per asymmetric unit
Briefly: stopped-flow CO2 hydration assay. The test is classed as biochemical. The source says:
stopped-flow CO2 hydration assay on hCA I

Test [5] is described as follows: stopped-flow CO2 hydration assay. It is filed as biochemical, Homo sapiens. To be noted: read-out: hCA I.

pKi: −log10 of the molar value. Where only a bound is given, the exact number is not on record here.

T4 sequence (P00915 2-261): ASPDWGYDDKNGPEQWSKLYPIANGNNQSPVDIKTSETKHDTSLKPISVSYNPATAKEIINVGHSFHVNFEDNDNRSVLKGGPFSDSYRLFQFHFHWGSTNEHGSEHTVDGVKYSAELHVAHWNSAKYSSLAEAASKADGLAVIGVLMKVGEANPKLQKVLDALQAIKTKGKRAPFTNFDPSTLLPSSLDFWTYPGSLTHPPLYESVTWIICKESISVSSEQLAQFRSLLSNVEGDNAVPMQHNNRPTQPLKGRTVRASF

Take `NS(=O)(=O)c1cccc(NC(=O)NCCNCc2ccccc2)c1` [compound 26, 3-(3-(2-(benzylamino)ethyl)ureido)benzenesulfonamide]: the pKi is 7.12 in test [1], 6.11 in test [2], under 5.00 in test [3] and 6.03 in test [4].
For `NS(=O)(=O)c1cccc(NC(=O)NCCNCc2ccc(F)cc2)c1` [compound 28, 3-(3-(2-((4-fluorobenzyl)amino)ethyl)ureido) benzenesulfonamide] the same measures were 7.27, 7.15, 5.38 and 6.06.
For `NS(=O)(=O)c1ccc(NC(=O)NCCNCc2ccccc2F)cc1` [compound 19, 4-(3-(2-((2-fluorobenzyl)amino)ethyl)ureido) benzenesulfonamide] the same measures were 8.41, 7.23, 7.69 and 7.61.
The corresponding values for `NS(=O)(=O)c1ccc(NC(=O)NCCNCc2ccc(F)cc2)cc1` [compound 18, 4-(3-(2-((4-fluorobenzyl)amino)ethyl)ureido) benzenesulfonamide] are 8.04, 7.27, 7.52 and 6.14.
As to `NS(=O)(=O)c1cccc(NC(=O)NCCNCc2ccc([N+](=O)[O-])cc2)c1` [compound 31, 3-(3-(2-((4-nitrobenzyl)amino)ethyl)ureido) benzenesulfonamide], the pKi in test [1] was 6.77; in test [2] it was 7.22; in test [3], 5.63; in test [4], 5.23.
Regarding `NS(=O)(=O)c1cccc(NC(=O)NCCNCc2ccc(Br)cc2O)c1` [compound 34, 3-(3-(2-((4-bromo-2-hydroxybenzyl)amino)ethyl)ureido) benzenesulfonamide], the pKi in test [1] was 8.55; in test [2], 8.14; in test [3], 5.72; in test [4], 6.18.
Regarding `NS(=O)(=O)c1ccc(NC(=O)NCCNCc2ccc(Cl)cc2)cc1` [compound 17, 4-(3-(2-((4-chlorobenzyl)amino)ethyl)ureido) benzenesulfonamide], the pKi in test [1] is 6.90; in test [2] it was 7.49; in test [3], 6.34; in test [4], 6.24.
For `COc1cc([N+](=O)[O-])ccc1CNCCNC(=O)Nc1ccc(S(N)(=O)=O)cc1` [compound 23, 4-(3-(2-((2-methoxy-4-nitrobenzyl)amino)ethyl)ureido)benzenesulfonamide] the same measures were 7.08, 7.27, 6.54 and 6.10.
On to `CN(C)c1ccc(CNCCNC(=O)Nc2cccc(S(N)(=O)=O)c2)cc1` [compound 32, 3-(3-(2-((4-(dimethylamino)benzyl)amino)ethyl)ureido) benzenesulfonamide], for which the pKi was 6.25 in test [1], 7.11 in test [2], 5.92 in test [3] and 5.05 in test [4].
For `CN(C)c1ccc(CNCCNC(=O)Nc2ccc(S(N)(=O)=O)cc2)cc1` [compound 22, 4-(3-(2-((4-(dimethylamino)benzyl)amino)ethyl)ureido) benzenesulfonamide] the same measures were 7.14, 6.58, 6.46 and 5.82.
For `NS(=O)(=O)c1ccc(NC(=O)NCCNCc2ccc(-c3ccccc3)cc2)cc1` [compound 25, 4-(3-(2-(([1,1′-biphenyl]-4-ylmethyl)amino)ethyl)ureido) benzenesulfonamide] the same measures were 7.20, 7.20, 5.94 and 6.11.
For `NS(=O)(=O)c1cccc(NC(=O)NCCNCc2ccccc2F)c1` [compound 29, 3-(3-(2-((2-fluorobenzyl)amino)ethyl)ureido) benzenesulfonamide], the pKi in test [1] is 7.48; in test [2], 6.32; in test [3] it was under 5.00; in test [4], 6.14.
Take `NS(=O)(=O)c1ccc(NC(=O)NCCNCc2ccccc2)cc1` [compound 16, 4-(3-(2-(benzylamino)ethyl)ureido) benzenesulfonamide]: the pKi in test [1] is 6.46; in test [2] it was 7.26; in test [3], 5.87; in test [4] it was 6.26.
As for `NS(=O)(=O)c1cccc(NC(=O)NCCNCc2ccc(Cl)cc2)c1` [compound 27, 3-(3-(2-((4-chlorobenzyl)amino)ethyl)ureido) benzenesulfonamide], the pKi in test [1] is 7.43; in test [2], 6.64; in test [3], 5.47; in test [4] it was 6.15.
With `COc1cc([N+](=O)[O-])ccc1CNCCNC(=O)Nc1cccc(S(N)(=O)=O)c1` [compound 33, 3-(3-(2-((2-methoxy-4-nitrobenzyl)amino)ethyl)ureido)benzenesulfonamide], the pKi in test [1] was 7.04; in test [2] it was 7.27; in test [3] it was 5.58; in test [4], under 5.00.
For `NS(=O)(=O)c1ccc(NC(=O)NCCNCc2ccc(Br)cc2O)cc1` [compound 24, 4-(3-(2-((4-bromo-2-hydroxybenzyl)amino)ethyl)ureido) benzenesulfonamide] the same measures were 8.28, 7.01, 6.94 and 6.86.
As for `NS(=O)(=O)c1cccc(NC(=O)NCCNCc2ccc(-c3ccccc3)cc2)c1` [compound 35, 3-(3-(2-(([1,1’-biphenyl]-4-ylmethyl)amino)ethyl)ureido) benzenesulfonamide], the pKi was 6.34 in test [1], 6.16 in test [2], under 5.00 in test [4] and under 5.00 in test [5].
Take `NS(=O)(=O)c1ccc(NC(=O)NCCNCc2ccc(O)cc2)cc1` [compound 20, 4-(3-(2-((4-hydroxybenzyl)amino)ethyl)ureido) benzenesulfonamide]: the pKi in test [1] was 6.57; in test [2], 7.12; in test [3] it was 6.01; in test [4], 6.11.
For `NS(=O)(=O)c1ccc(NC(=O)NCCNCc2ccc([N+](=O)[O-])cc2)cc1` [compound 21, 4-(3-(2-((4-nitrobenzyl)amino)ethyl)ureido) benzenesulfonamide] the same measures were 7.02, 7.11, 6.50 and 6.28.
For `NS(=O)(=O)c1cccc(NC(=O)NCCNCc2ccc(O)cc2)c1` [compound 30, 3-(3-(2-((4-hydroxybenzyl)amino)ethyl)ureido) benzenesulfonamide] the same measures were 6.78, 6.50, 5.45 and 5.20.
